Experimental data as given in article PMC12955470, “A novel approach to combat Pseudomonas aeruginosa: repurposing pharmaceuticals for inhibition of phospholipase A” (Microbiology Spectrum, 2026).

Biological target: T1, PlaF (Pseudomonas aeruginosa, UniProt G3XCU7)
T1 construct: gene PA2949; purified PlaF (pBBR-plaFH6, His-tagged) reconstituted into phospholipid liposomes
Assay: p-NPB esterase assay with purified PlaF; Michaelis-Menten kinetics (Km increased, vmax unchanged)
Format: biochemical

T1 sequence (G3XCU7 entry or part of it): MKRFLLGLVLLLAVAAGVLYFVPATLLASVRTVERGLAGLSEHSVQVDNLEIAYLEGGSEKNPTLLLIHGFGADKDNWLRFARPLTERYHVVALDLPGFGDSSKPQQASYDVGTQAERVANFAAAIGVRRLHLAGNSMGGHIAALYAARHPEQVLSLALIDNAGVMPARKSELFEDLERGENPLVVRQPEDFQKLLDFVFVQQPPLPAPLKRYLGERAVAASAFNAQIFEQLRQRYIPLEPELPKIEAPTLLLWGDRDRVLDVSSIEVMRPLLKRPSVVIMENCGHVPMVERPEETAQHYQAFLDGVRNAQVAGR

| SMILES | inhibition at 400 µM | inhibition at 69.2 µM |
| --- | --- | --- |
| CCN(CC)CCN(Cc1ccc(-c2ccc(C(F)(F)F)cc2)cc1)C(=O)Cn1c(SCc2ccc(F)cc2)nc(=O)c2c1CCC2 [darapladib] | ~50% | – |
| COCCN1CCC(N(Cc2ccc(-c3ccc(C(F)(F)F)cc3)cc2)C(=O)Cn2c(SCc3cccc(F)c3F)cc(=O)c3ccccc32)CC1 [rilapladib] | ~50% | – |
| O=C(/C=C/c1ccc(/C=C/C(=O)Nc2ccc(C3=NCCN3)cc2)cc1)Nc1ccc(C2=NCCN2)cc1 [GW4869] | – | ~30% |
